Data published in patent US9242948B2, “Diepoxy compound, process for producing same, and composition containing the diepoxy compound” (Sumitomo Chemical Company, Limited, priority 2009, dated 2016).

Experiment: Measurement of solubility in methyl isobutyl ketone
Type: physicochemical
Conditions: for Solubility: compound (g)×100/[compound (g)+methyl isobutyl ketone (g)]; for Solubility relative to that of the compound represented by the formula (A): from Table 1
Procedure: <Measurement of Solubility>
by the formula (1-1) which was obtained in Example 2, the compound represented by the formula (1-2) which was obtained in Example 6, and the compound represented by the following formula (A)
[drawing 31] (compound (g)×100/[compound (g)+methyl isobutyl ketone (g)], % by weight) were measured.

Row | Compound | Solubility (40° C.) [% by weight] | Solubility (65° C.) [% by weight] | Solubility relative to that of the compound represented by the formula (A)
1 | O=C(OC1CCC(c2ccc(OCC3CO3)cc2)CC1)c1ccc(OCC2CO2)cc1 (centres unmarked) [formula (1-1), 4-{4-(2,3-epoxypropoxy)phenyl}cyclohexyl 4-(2,3-epoxypropoxy)benzoate] | 2.36 | 4.16 | more than twice as big
2 | Cc1cc(C(=O)OC2CCC(c3ccc(OCC4CO4)cc3)CC2)ccc1OCC1CO1 (centres unmarked) [formula (1-2), 4-{4-(2,3-epoxypropoxy)phenyl}cyclohexyl 4-(2,3-epoxypropoxy)-3-methylbenzoate] | 2.01 | 4.70 | more than twice as big
3 | Cc1cc(OC(=O)c2ccc(OCC3CO3)cc2)ccc1OC(=O)c1ccc(OCC2CO2)cc1 (centres unmarked) [formula (A), reference compound] | 1.10 | 2.00 | –
